Experimental findings from US20070219203A1, “Arylalkylamino-substituted quinazoline analogues” (Neurogen Corporation, priority 2004, published 2007) are described below.

For orientation: IC50 means the concentration that gives 50% inhibition.

Bounds are passed on as bounds.

The target in one assay is T1, human capsaicin receptor (Homo sapiens, UniProt Q8NER1).
T1 construct: expressed in transfected cells
T1 sequence (Q8NER1 whole entry): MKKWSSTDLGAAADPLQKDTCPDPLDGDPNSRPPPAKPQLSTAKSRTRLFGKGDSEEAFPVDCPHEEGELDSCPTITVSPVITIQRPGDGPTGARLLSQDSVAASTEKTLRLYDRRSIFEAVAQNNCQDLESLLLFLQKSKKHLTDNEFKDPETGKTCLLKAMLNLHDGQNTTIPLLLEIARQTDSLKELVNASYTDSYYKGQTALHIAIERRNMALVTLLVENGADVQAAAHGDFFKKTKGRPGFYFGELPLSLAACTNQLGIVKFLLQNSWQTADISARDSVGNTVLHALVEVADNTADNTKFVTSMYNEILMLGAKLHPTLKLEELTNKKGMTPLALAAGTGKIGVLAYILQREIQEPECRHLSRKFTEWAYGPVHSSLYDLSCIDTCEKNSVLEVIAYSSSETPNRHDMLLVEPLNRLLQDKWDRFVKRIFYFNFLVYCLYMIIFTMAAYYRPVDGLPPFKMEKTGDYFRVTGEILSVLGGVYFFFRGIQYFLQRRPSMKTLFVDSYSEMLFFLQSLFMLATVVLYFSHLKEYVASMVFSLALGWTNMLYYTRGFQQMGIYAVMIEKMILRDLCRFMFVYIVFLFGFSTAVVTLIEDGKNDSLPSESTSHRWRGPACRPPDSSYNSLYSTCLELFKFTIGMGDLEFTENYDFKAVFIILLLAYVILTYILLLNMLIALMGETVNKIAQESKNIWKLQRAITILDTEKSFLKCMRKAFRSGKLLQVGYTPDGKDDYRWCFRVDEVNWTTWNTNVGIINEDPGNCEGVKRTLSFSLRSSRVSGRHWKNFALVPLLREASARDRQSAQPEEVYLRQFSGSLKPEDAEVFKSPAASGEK
Kind of assay: Calcium mobilization assay, antagonist activity (Example 6). It counts as cell-based. Conditions: Table I; 50% decrease in fluorescence response of cells expressing human capsaicin receptor exposed to capsaicin. The method, then: A cDNA encoding full length human capsaicin receptor (SEQ ID NO:1, 2 or 3 of U.S. Pat. No. 6,482,611) is subcloned in the plasmid pBK-CMV (Stratagene, La Jolla, Calif.) for recombinant expression in mammalian cells.
Human embryonic kidney (HEK293) cells are transfected with the pBK-CMV expression construct encoding the full length human capsaicin receptor using standard methods. The transfected cells are selected for two weeks in media containing G418 (400 μg/ml) to obtain a pool of stably transfected cells. Independent clones are isolated from this pool by limiting dilution to obtain clonal stable cell lines for use in subsequent experiments.
Cells transfected with expression plasmids (as described in Example 4) and thereby expressing human capsaicin receptor are seeded and grown to 70-90% confluency in FALCON black-walled, clear-bottomed 96-well plates (#3904, BECTON-DICKINSON, Franklin Lakes, N.J.). The culture medium is emptied from the 96 well plates and […] calcium sensitive dye (Molecular Probes, Eugene, Oreg.) is added to each well (dye solution: 1 mg […], 440 μL DMSO and 440 μl 20% pluronic acid in DMSO, diluted 1:250 in Krebs-Ringer HEPES (KRH) buffer (25 mM HEPES, 5 mM KCl, 0.96 mM NaH2PO4, 1 mM MgSO4, 2 mM CaCl2, 5 mM glucose, 1 mM probenecid, pH 7.4), 50 μl diluted solution per well). Plates are covered with aluminum foil and incubated at 37° C. for 1-2 hours in an environment containing 5% CO2. After the incubation, the dye is emptied from the plates, and the cells are washed once with KRH buffer, and resuspended in KRH buffer.
To measure the ability of a test compound to agonize or antagonize a calcium mobilization response in cells expressing capsaicin receptors to capsaicin or other vanilloid agonist, the EC50 of the agonist capsaicin is first determined. An additional 20 μl of KRH buffer and 1 μl DMSO is added to each well of cells, prepared as described above. 100 μl capsaicin in KRH buffer is automatically transferred by the FLIPR instrument to each well. Capsaicin-induced calcium mobilization is monitored using either FLUOROSKAN ASCENT (Labsystems; Franklin, Mass.) or FLIPR (fluorometric imaging plate reader system; Molecular Devices, Sunnyvale, Calif.) instruments. Data obtained between 30 and 60 seconds after agonist application are used to generate an 8-point concentration response curve, with final capsaicin concentrations of 1 nM to 3 μM. KALEIDAGRAPH software (Synergy Software, Reading, Pa.) is used to fit the data to the equation: y=a*(1/(1+(b/x)^c)) to determine the 50% excitatory concentration (EC50) for the response. In this equation, y is the maximum fluorescence signal, x is the concentration of the agonist or antagonist (in this case, capsaicin), a is the Emax, b corresponds to the EC50 value and c is the Hill coefficient. Determination of Agonist Activity
Test compounds are dissolved in DMSO, diluted in 20 μl KRH buffer so that the final concentration of test compounds in the assay well is between 1 μM and 5 μM, and added to cells prepared as described above. The 96 well plates containing prepared cells and test compounds are incubated in the dark, at room temperature for 0.5 to 6 hours. It is important that the incubation not continue beyond 6 hours. Just prior to determining the fluorescence response, 100 μl capsaicin in KRH buffer at twice the EC50 concentration determined as described above is automatically added by the FLIPR instrument to each well of the 96 well plate for a final sample volume of 200 μl and a final capsaicin concentration equal to the EC50. The final concentration of test compounds in the assay wells is between 1 μM and 5 μM. […] The concentration of antagonist required to provide a 50% decrease, relative to the response observed in the presence of capsaicin and without antagonist, is the IC50 for the antagonist, and is preferably below 1 micromolar, 100 nanomolar, 10 nanomolar or 1 nanomolar.
Background: Calcium assays in cells follow changes in intracellular calcium, usually with a dye or a luminescent sensor.
Regarding `COc1cccc(CCNc2nc(COCC(C)C)nc3nc(-c4ncccc4C(F)(F)F)ccc23)c1` [Compound 42, 2-(isobutoxymethyl)-N-[2-(3-methoxyphenyl)ethyl]-7-[3-(trifluoromethyl)pyridin-2-yl]pyrido[2,3-d]pyrimidin-4-amine], the IC50 is at most 1000 nM.

On to `FC(F)(F)c1ccccc1-c1ccc2c(NCCc3ccccc3)ncnc2c1` [Compound 1, N-(2-phenylethyl)-7-{2-(trifluoromethyl)phenyl]quinazolin-4-amine], for which the IC50 is at most 1000 nM. With `CC(C)COCc1nc(NCCc2cccc(Cl)c2)c2ccc(-c3ncccc3C(F)(F)F)nc2n1` [Compound 34, N-[2-(3-chlorophenyl)ethyl]-2-(isobutoxymethyl)-7-[3-(trifluoromethyl)pyridin-2-yl]pyrido[2,3-d]pyrimidin-4-amine], the half-maximal inhibitory concentration (IC50) was at most 1000 nM. In the case of `FC(F)(F)c1cccc(CCNc2ncnc3cc(-c4ncccc4C(F)(F)F)ccc23)c1` [Compound 16, N-{2-[3-(trifluoromethyl)phenyl]ethyl}-7-[3-(trifluoromethyl)pyridin-2-yl]quinazolin-4-amine], the IC50 was at most 1000 nM. Take `CC(C)COCc1nc(NCC(=O)c2cccc(Cl)c2)c2ccc(-c3ncccc3C(F)(F)F)nc2n1` [Compound 60, 1-(3-chlorophenyl)-2-({2-(isobutoxymethyl)-7-[3-(trifluoromethyl)pyridin-2-yl]pyrido[2,3-d]pyrimidin-4-yl}amino)ethanone]: the IC50 was at most 1000 nM. Still for that read-out and setting: the result for `Fc1ccc(CCNc2ncnc3cc(-c4ncccc4C(F)(F)F)ccc23)cc1F` [Compound 27, N-[2-(3,4-difluorophenyl)ethyl]-7-[3-(trifluoromethyl)pyridin-2-yl]quinazolin-4-amine] reads at most 1000 nM; that for `CCOCc1nc(NCCc2cccc(Cl)c2)c2ccc(-c3ncccc3Cl)nc2n1` [Compound 55, N-[2-(3-chlorophenyl)ethyl]-7-(3-chloropyridin-2-yl)-2-(ethoxymethyl)pyrido[2,3-d]pyrimidin-4-amine], at most 1000 nM; that for `CC(C)COCc1nc(NCCc2ccc(C(F)(F)F)cc2)c2ccc(-c3ncccc3C(F)(F)F)nc2n1` [Compound 40, 2-(isobutoxymethyl)-N-{2-[4-(trifluoromethyl)phenyl]ethyl}-7-[3-(trifluoromethyl)pyridin-2-yl]pyrido[2,3-d]pyrimidin-4-amine], at most 1000 nM. Turning to `CCOCc1nc(NCCc2ccc(F)cc2)c2ccc(-c3ncccc3Cl)nc2n1` [Compound 53, 7-(3-chloropyridin-2-yl)-2-(ethoxymethyl)-N-[2-(4-fluorophenyl)ethyl]pyrido[2,3-d]pyrimidin-4-amine], the half-inhibitory concentration (IC50) is at most 1000 nM. Still for that read-out and setting: to `COc1ccc(CCNc2nc(COCC(C)C)nc3nc(-c4ncccc4C(F)(F)F)ccc23)cc1` [Compound 43, 2-(isobutoxymethyl)-N-[2-(4-methoxyphenyl)ethyl]-7-[3-(trifluoromethyl)pyridin-2-yl]pyrido[2,3-d]pyrimidin-4-amine] belongs at most 1000 nM; to `CCOCc1nc(NC2Cc3ccccc3C2)c2ccc(-c3ncccc3Cl)nc2n1` [Compound 62, 7-(3-chloropyridin-2-yl)-N-(2,3-dihydro-1H-inden-2-yl)-2-(ethoxymethyl)pyrido[2,3-d]pyrimidin-4-amine], at most 1000 nM; to `CCOCc1nc(NCCc2ccccc2F)c2ccc(-c3ncccc3Cl)nc2n1` [Compound 52, 7-(3-chloropyridin-2-yl)-n-(ethoxymethyl)-N-[2-(2-fluorophenyl)ethyl]pyrido[2,3-d]pyrimidin-4-amine], at most 1000 nM.

Consider `FC(F)(F)c1cccnc1-c1ccc2c(N[C@@H]3C[C@H]3c3ccccc3)ncnc2c1` [Compound 31, N-[(1R,2S)-2-phenylcyclopropyl]-7-[3-(trifluoromethyl)pyridin-2-yl]quinazolin-4-amine], for which the IC50 was at most 1000 nM.

The assay is the same for the next values; noted with them: Table II; 50% decrease in fluorescence response of cells expressing human capsaicin receptor exposed to capsaicin.
For `FC(F)(F)c1cccnc1-c1ccc2c(N[C@H]3CCCc4ccccc43)ncnc2c1` [Compound 81, (1,2,3,4-Tetrahydro-naphthalen-1-yl)-[7-(3-trifluoromethyl-pyridin-2-yl)-quinazolin-4-yl]-amine], the IC50 was at most 1000 nM.

For the molecule `Cc1ccccc1CCNc1ncnc2cc(-c3ncccc3C(F)(F)F)ccc12` [Compound 65, (2-o-Tolyl-ethyl)-[7-(3-trifluoromethyl-pyridin-2-yl)-quinazolin-4-yl]-amine], the IC50 is at most 1000 nM. With `COCCN(CCOC)Cc1nc(NCCc2ccccc2C)c2ccc(-c3ncccc3C(F)(F)F)cc2n1` [Compound 168, [2-{[Bis-(2-methoxy-ethyl)-amino]-methyl}-7-(3 trifluoromethyl-pyridin-2-yl)-quinazolin-4-yl]-(2-o-tolyl-ethyl)-amine], the IC50 is at most 1000 nM. Turning to `C=C(C)CN(CC)Cc1nc(NCCc2ccccc2)c2ccc(-c3ncccc3C(F)(F)F)cc2n1` [Compound 154, [2-{[Ethyl-(2-methyl-allyl)-amino]-methyl}-7-(3-trifluoromethyl-pyridin-2-yl)-quinazolin-4-yl]-phenethyl-amine], the IC50 was at most 1000 nM. `CCN(Cc1nc(NCCc2ccccc2C)c2ccc(-c3ncccc3C(F)(F)F)cc2n1)C1CCCCC1` [Compound 164, [2-[(Cyclohexyl-ethyl amino)-methyl]-7-(3-trifluoromethyl-pyridin-2-yl)-quinazolin-4-yl]-(2-o-tolyl-ethyl)-amine]: the IC50 is at most 1000 nM. The same measure, in the same setting: the result for `C[C@@H]1CN(Cc2nc(NCCc3ccccc3Cl)c3ccc(-c4ncccc4Cl)cc3n2)C[C@@H](C)O1` (stereo in doubt) [Compound 166, [2-(2-Chloro-phenyl)-ethyl]-[7-(3-chloro-pyridin-2-yl)-2-(2,6-dimethyl-morpholin-4-ylmethyl)-quinazolin-4-yl]-amine] reads at most 1000 nM. As for `Cc1ccccc1CCNc1nc(CN(C)C2CCCCC2)nc2cc(-c3ncccc3C(F)(F)F)ccc12` [Compound 158, [2-[(Cyclohexyl-methyl-amino)-methyl]-7-(3-trifluoromethyl-pyridin-2-yl)-quinazolin-4-yl]-(2-o-tolyl-ethyl)-amine], the IC50 was at most 1000 nM. On to `CCCCC(CNc1ncnc2cc(-c3ncccc3C(F)(F)F)ccc12)c1ccccc1` (stereo not drawn) [Compound 70, (2-Phenyl-hexyl)-[7-(3-trifluoromethyl-pyridin-2-yl)-quinazolin-4-yl]-amine], for which the IC50 is at most 1000 nM. For `CCCCCN(CCCCC)Cc1nc(NCCc2ccccc2Cl)c2ccc(-c3ncccc3C(F)(F)F)cc2n1` [Compound 172, [2-(2-Chloro-phenyl)-ethyl]-[2-dipentylaminomethyl-7-(3-trifluoromethyl-pyridin-2-yl)-quinazolin-4-yl]-amine], the IC50 is at most 1000 nM. As for `C=C(C)CN(CC)Cc1nc(NCCc2ccccc2C)c2ccc(-c3ncccc3C(F)(F)F)cc2n1` [Compound 155, [2-{[Ethyl-(2-methyl-allyl)-amino]-methyl}-7-(3-trifluoromethyl-pyridin-2-yl)-quinazolin-4-yl]-(2-o-tolyl-ethyl)-amine], the IC50 is at most 1000 nM.

For `CC1CC(C)CN(Cc2nc(NCCc3ccccc3Cl)c3ccc(-c4ncccc4C(F)(F)F)cc3n2)C1` (stereo not drawn) [Compound 178, [2-(2-Chloro-phenyl)-ethYl]-[2-(3,5-dimethyl-piperidin-1-ylmethyl)-7-(3-trifluoromethyl-pyridin-2-yl)-quinazolin-4-yl]-amine], the IC50 was at most 1000 nM.
